Test results reported in publication PMC8962382, “Identification of Novel Mitochondrial Pyruvate Carrier Inhibitors by Homology Modeling and Pharmacophore-Based Virtual Screening” (Biomedicines, 2022).
Positions count from the first letter of the chain named. Where two headings read alike, the source gives them in different places. Blank lines part the entries; values can stand above or below the molecule they belong to.

Tests used:
[1] = molecular target: T1, mitochondrial pyruvate carrier (MPC) (Mus musculus, UniProt P63030+Q9D023); assay: Inhibition of pyruvate-stimulated respiration (OCR) of isolated heart mitochondria; type: biochemical, mice; settings: for IC50: Table 1, inhibiting mitochondrial pyruvate respiration, isolated heart mitochondria
T1 construct: 50 µg of mitochondrial protein was added to the chambers of an Oxygraph O2K; from tissue; host or cells: heart mitochondria of C57Bl/6J mice
T1 sequence (P63030 2-109 limits assumed): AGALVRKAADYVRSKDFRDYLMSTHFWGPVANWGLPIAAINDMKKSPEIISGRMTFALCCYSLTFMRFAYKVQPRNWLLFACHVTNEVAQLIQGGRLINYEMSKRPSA
T1 sequence (Q9D023 1-127): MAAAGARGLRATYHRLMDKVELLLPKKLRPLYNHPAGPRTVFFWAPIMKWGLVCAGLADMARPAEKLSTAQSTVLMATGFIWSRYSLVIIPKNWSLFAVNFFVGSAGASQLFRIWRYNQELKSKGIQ
Experimental: Hearts were removed from mice after CO2 asphyxiation and homogenized in buffer containing 250 mM sucrose, 10 mM Tris base, and 1 mM EDTA (pH = 7.4) by 8–10 passes of a glass-on-glass Dounce homogenizer on ice. Homogenates were centrifuged at 1000× g for 5 min at 4 °C to pellet nuclei and undisrupted cells. The supernatants were then centrifuged at 10,000× g for 10 min at 4 °C to enrich for mitochondria; this mitochondrial pellet was washed and re-pelleted twice in fresh sucrose/tris buffer. The mitochondrial pellet was then solubilized in ~150 μL of Mir05 respiration buffer (0.5 mM EGTA, 3 mM MgCl2, 60 mM lactobionic acid, 20 mM taurine, 10 mM KH2PO4, 20 mM HEPES, 110 mM sucrose and 1 g/L of fatty acid free bovine serum albumin; pH 7.1). Mitochondrial protein content was then measured by BCA; 50 µg of mitochondrial protein was added to the chambers of an Oxygraph O2K (Oroboros Instruments), with a total volume of 2 mL Mir05 buffer set to 37 °C. Respiration was stimulated with 5 mM pyruvate/2 mM malate and 2 mM ADP. After obtaining steady state respiration measurements, compounds were added to the chamber at the indicated concentrations. Then, 5 mM succinate was added to determine inhibitor specificity towards pyruvate-stimulated respiration. Steady-state rates of oxygen consumption were assessed for 1–2 min before addition of subsequent substrate or inhibitor. Oxygen consumption rates (OCR) were calculated from the change in oxygen concentration over time and normalized to 50 µg of mitochondria within the chamber.

[2] = molecular target: T2, Human MPC1 and MPC2 (WT MPC BRET constructs) (Homo sapiens, UniProt O95563+Q9Y5U8); assay: BRET-based MPC reporter assay in U2OS cells (MPC1-mCherry / MPC2-NLuc); type: cell-based; settings: for BRET assay activation: WT MPC; for BRET activity: test compounds dosed at 10 μM, U2OS cells, WT MPC BRET constructs
T2 construct: expressed in transfected cells; host or cells: U2OS cells, transient transfection
T2 sequence (Q9Y5U8 2-109 limits assumed): T1 sequence (P63030 2-109 limits assumed) with V84A, N99K, Y100H, S103T, R105T, P106A
T2 sequence (O95563 1-127): T1 sequence (Q9D023 1-127) with A2S, M17L, L23M, K26E, T73A, S105A, S123A, G125A, I126H, Q127K
Experimental: Based on the success of a previously described MPC BRET reporter assay, we developed our own BRET assay using more recently adopted BRET donor and acceptor pairs. In this assay, Nanoluciferase is used as the BRET donor, and mCherry fluorescent protein is used as the BRET acceptor. Human MPC1 and MPC2 cDNA constructs with stop codon removed for C-terminal tagging were obtained from the Harvard PlasmID repository. […] Site-directed mutagenesis (Agilent) was then performed to delete linking regions between the MPC proteins and C-terminal tags.
For BRET assays, U2OS cells were transiently transfected with MPC1-mCherry and MPC2-NLuc constructs and, 24 h later, plated onto 9 columns of a clear-bottom white 96-well plate at 10,000 cells/well. As a BRET control, some cells were transfected with MPC2-NLuc only, and these cells plated on the remaining 3 columns of the 96-well plate at 10,000 cells/well. The following day, cells were washed with PBS and starved in phenol red-, glucose-, and pyruvate-free Dulbecco’s Modified Eagle’s Medium (DMEM) for 3 h. Cells were then washed in PBS and then provided PBS with 1 mM CaCl2 and 0.5 mM MgCl2 plus 2 μg/mL coelenterazine h BRET substrate, a white sticker applied to the bottom of the plate, and the plate immediately placed into a BioTek Synergy plate reader. […] After several baseline readings, the plate was ejected, and test substrates/compounds were manually pipetted into the wells. […] All data was then normalized to the values immediately prior to compound injection. Data were either reported as curves over time or average normalized BRET of the several readings immediately after compound injections. For testing pyruvate/inhibitor-binding residues, point mutations were made in MPC1 or MPC2 constructs by site-directed mutagenesis (Agilent); BRET assays were performed the same as above. All of these assays contained 96-well plates directly comparing cells expressing WT MPC and mutant BRET constructs.

[3] = system: MPC1-F66A or MPC2-K49A; assay: BRET-based MPC reporter assay with mutant MPC constructs; type: cell-based, Human; settings: magnitude much less than in WT-expressing cells
Experimental: For BRET assays, U2OS cells were transiently transfected with MPC1-mCherry and MPC2-NLuc constructs and, 24 h later, plated onto 9 columns of a clear-bottom white 96-well plate at 10,000 cells/well. As a BRET control, some cells were transfected with MPC2-NLuc only, and these cells plated on the remaining 3 columns of the 96-well plate at 10,000 cells/well. The following day, cells were washed with PBS and starved in phenol red-, glucose-, and pyruvate-free Dulbecco’s Modified Eagle’s Medium (DMEM) for 3 h. Cells were then washed in PBS and then provided PBS with 1 mM CaCl2 and 0.5 mM MgCl2 plus 2 μg/mL coelenterazine h BRET substrate, a white sticker applied to the bottom of the plate, and the plate immediately placed into a BioTek Synergy plate reader. Luminescence was then read repeatedly from the top of the plate at emission wavelengths of 485/20 nm and 640/40 nm for NLuc and mCherry signals, respectively. After several baseline readings, the plate was ejected, and test substrates/compounds were manually pipetted into the wells. […] To calculate BRET activity, at each reading interval, the luminescence of 620 nm emission wavelength was divided by the 485 nm emission wavelength, and the values from the MPC2-Nluc-only expressing cells were subtracted from the cells expressing both constructs. […]

IC50 ([1]; read-out: IC50): 241 nM
BRET assay activation ([2]; 5 μM UK-5099 vs DMSO vehicle): activated
SMILES: N#C/C(=C\c1cn(-c2ccccc2)c2ccccc12)C(=O)O [UK-5099, reference compound]
BRET activity in mutants [3]: small, but significant, activation of BRET activity

IC50 [1]: inactive
SMILES: CCOC(=O)/C(C#N)=C/c1c[nH]nc1C(C)(C)C [BE1988]

IC50 ([1]; read-out: IC50): 638 nM
fold less potent than BE1978 ([1]; ratio of IC50 values): 5 fold
fold less potent than BE1980 ([1]; ratio of IC50 values): 4 fold
BRET activity [2]: increased BRET activity
SMILES: N#C/C(=C\c1c[nH]nc1-c1cccc(Br)c1)C(=O)O [BE1985]

IC50 ([1]; read-out: IC50): 39 nM
fold more potent than UK-5099 ([1]; ratio of IC50 values): 6 fold
BRET activity [2]: showed activity
SMILES: N#C/C(=C\c1n[nH]cc1-c1ccccc1)C(=O)O [BE2617, (E)-2-Cyano-3-(4-Phenyl-3-Pyrazolyl)acrylic Acid]

MPC inhibitory activity ([1]; SAR statement): abolished activity
IC50 [1]: inactive
SMILES: O=C(NC(Cc1c[nH]c2ccccc12)C(=O)O)C1CC1 (stereo not shown) [BE1975]

IC50 ([1]; read-out: IC50): 731 nM
fold less potent than UK-5099 ([1]; inhibiting the respiration): 3 fold
fold less potent than BE2617 ([1]; ratio of IC50 values): more than 18 fold
BRET activity [2]: showed activity
SMILES: Cc1ccc(-c2c[nH]nc2/C=C(\C#N)C(=O)O)cc1 [BE2623, (E)-2-Cyano-3-[4-(p-Tolyl)-3-Pyrazolyl]acrylic Acid]

IC50 ([1]; read-out: IC50): 162 nM
BRET activity [2]: increased BRET activity
SMILES: Cc1nn(-c2ccccc2)c(C)c1/C=C(\C#N)C(=O)O [BE1980, (E)-2-Cyano-3-(3,5-Dimethyl-1-Phenyl-4-Pyrazolyl)acrylic Acid]

BRET assay activation ([2]; 5 mM pyruvate vs DMSO vehicle): activated
SMILES: CC(=O)C(=O)O [pyruvate]

BRET assay activation ([2]; 10 μM MSDC-0602K vs DMSO vehicle): activated
SMILES: COc1cccc(C(=O)COc2ccc(CC3SC(=O)[N-]C3=O)cc2)c1.[K+] (stereo not shown) [MSDC-0602K, reference compound]
BRET activity in mutants [3]: small, but significant, activation of BRET activity
